Measured values taken from the supplement of paper PMC10307832.

Experiments:
Assay in all cases: relative viability (nuclei count vs DMSO), 5 days (fraction); higher = more cells survive
[1] = compound: CN[C@@H]1C[C@H]2O[C@@](C)([C@@H]1OC)n1c3ccccc3c3c4c(c5c6ccccc6n2c5c31)C(=O)NC4 [Staurosporine] + O=C(c1cc(Cc2n[nH]c(=O)c3ccccc23)ccc1F)N1CCN(C(=O)C2CC2)CC1 [Olaparib] (partner 8 µM)
Summary of the method: (§1)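 Medians of duplicate plates are given as relative viability. That measure is the nuclei count in treated wells divided by the count in vehicle wells. Counts were taken on 4× images of lung cancer cell lines in 1536-well plates, 5 days after pin-tool dosing the day after seeding with one drug alone or a fixed anchor-drug dose plus five library-drug doses (not always all listed) in √10 steps.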

[2] = compound: CC1=C(CC(=O)O)c2cc(F)ccc2/C1=C\c1ccc([S+](C)[O-])cc1 [Sulindac] + CC1(C)CCC(c2ccc(Cl)cc2)=C(CN2CCN(c3ccc(C(=O)NS(=O)(=O)c4ccc(N[C@H](CCN5CCOCC5)CSc5ccccc5)c(S(=O)(=O)C(F)(F)F)c4)cc3)CC2)C1 [Navitoclax] (partner 0.5 µM)
Summary of the method: as §1

[3] = compound: CC1=C(CC(=O)O)c2cc(F)ccc2/C1=C\c1ccc([S+](C)[O-])cc1 [Sulindac] + Cc1nc(NC(=O)N2CCC[C@H]2C(N)=O)sc1-c1ccnc(C(C)(C)C(F)(F)F)c1 [Alpelisib] (partner 2 µM)
Summary of the method: as §1

[4] = compound: CN[C@@H]1C[C@H]2O[C@@](C)([C@@H]1OC)n1c3ccccc3c3c4c(c5c6ccccc6n2c5c31)C(=O)NC4 [Staurosporine] + CC(=O)Nc1cccc(-n2c(=O)n(C3CC3)c(=O)c3c(Nc4ccc(I)cc4F)n(C)c(=O)c(C)c32)c1 [Trametinib] (partner 0.02 µM)
Summary of the method: as §1

Row | Cell Line | relative viability ([1]; first compound 0.005 µM) | relative viability ([1]; first compound 0.05 µM) | relative viability ([1]; first compound 0.5 µM) | relative viability ([2]; first compound 0.08 µM) | relative viability ([2]; first compound 0.253 µM) | relative viability ([2]; first compound 0.8 µM) | relative viability ([2]; first compound 2.53 µM) | relative viability ([2]; first compound 8 µM) | relative viability ([3]; first compound 0.08 µM) | relative viability ([3]; first compound 0.253 µM) | relative viability ([3]; first compound 0.8 µM) | relative viability ([3]; first compound 2.53 µM) | relative viability ([3]; first compound 8 µM) | relative viability ([4]; first compound 0.005 µM) | relative viability ([4]; first compound 0.05 µM) | relative viability ([4]; first compound 0.5 µM) | relative viability ([1]; first compound 0.01581 µM) | relative viability ([1]; first compound 0.1581 µM) | relative viability ([4]; first compound 0.01581 µM) | relative viability ([4]; first compound 0.1581 µM)
1 | NCI-H3122 | 0.575 | 0.481 | 0.281 | 0.913 | 0.999 | 1.01 | 0.992 | 1.05 | 0.639 | 0.722 | 0.699 | 0.756 | 0.941 | 0.368 | 0.648 | 0.221 | – | – | – | –
2 | PC-3 [JPC-3] | 1.03 | 0.569 | 0.332 | 0.971 | 0.758 | 0.786 | 0.762 | 0.752 | 1.18 | 1.03 | 0.95 | 1.08 | 1.04 | 0.704 | 0.453 | 0.332 | 0.603 | 0.385 | 0.543 | 0.391
3 | PC-14 | 0.147 | 0.042 | 0.043 | 0.933 | 1.1 | – | 1.07 | 1.14 | 0.986 | 1.16 | – | 1.13 | 1 | 0.483 | 0.0553 | 0.0475 | 0.0797 | 0.0556 | 0.064 | 0.0467
4 | RERF-LC-KJ | 0.726 | 0.304 | 0.188 | 1.23 | 0.983 | 0.797 | 0.749 | 1.11 | 0.837 | 0.889 | 0.65 | 0.877 | 0.746 | 0.795 | – | 0.207 | 0.537 | 0.228 | 0.604 | 0.328
